Experimental data reported in a compilation of properties of binary mixtures (doi:10.1016/j.molliq.2011.09.019).

Assay: xn = mol fraction of the nth substance listed
Conditions: 101 kPa

CC(=O)[O-].CC[NH2+]CC + CS(C)=O
Conditions	speed of sound, 298.15 K [m/s]	speed of sound, 303.15 K [m/s]	speed of sound, 308.15 K [m/s]	viscosity, 298.15 K [mPa·s]	viscosity, 303.15 K [mPa·s]	viscosity, 308.15 K [mPa·s]
x1 = 0.0144	1500	1478	1469	2.24	2.04	1.9
x2 = 0	1608	1604	1599	16.36	13.64	11.83
x2 = 0.0253	1606	–	1594	16.01	–	11.6
x2 = 0.0627	1604	1599	1594	15.5	12.96	11.27
x2 = 0.1132	1601	1597	1592	14.83	12.44	10.86
x2 = 0.1535	1599	1595	–	14.29	12.02	–
x2 = 0.2023	–	1594	1589	–	11.54	10.14
x2 = 0.2458	1597	1593	1588	13.11	11.1	9.76
x2 = 0.2814	–	1592	–	–	10.73	–
x2 = 0.3244	1596	1591	1584	12.13	10.28	9.1
x2 = 0.3701	1595	1590	1582	11.56	9.82	8.7
x2 = 0.4864	1593	1582	1574	10.09	8.64	7.69
x2 = 0.5897	–	1572	1562	–	7.51	6.74
x2 = 0.66	–	1564	1554	–	6.72	6.08
x2 = 0.7253	1572	–	1544	6.74	–	5.4
x2 = 0.7851	–	1540	1530	–	5.17	4.77
x2 = 0.8406	1546	–	1516	4.91	–	4.11
x2 = 0.8923	1532	1512	1502	3.98	3.67	3.45
x2 = 0.9248	1522	–	1490	3.39	–	2.95
x2 = 0.956	1513	1491	1480	2.81	2.61	2.48
x2 = 0.971	–	1485	1474	–	2.32	2.18

CS(C)=O + CC(=O)[O-].CC[NH2+]CC
x1 = 1
Conditions	speed of sound [m/s]	viscosity [mPa·s]
298.15 K	1496	1.99
303.15 K	1472	1.79
308.15 K	1460	1.65
